Tests used:
mutant BRAF = details: cell lines; cited from earlier work
[1] = tested on: MEK and ERK phosphorylation; details: BRAF mutated cell lines; cited from earlier work
melanoma xenografts = details: cited from earlier work
131/4-5B1 melanoma cells = assay: Proliferation of 131/4-5B1 melanoma cells (viable cell count); format: cell-based; details: Homo sapiens; 131/4-5B1 cells, 72 hours incubation
Procedure: 131/4-5B1 (human melanoma brain-metastasis cell line that was obtained from Dr. Kerbel' Lab) (15,000/well) were plated onto 24-well culture in RPMI medium supplemented with 10% FBS and incubated for 24 hours (37° C.; 5% CO2). The medium was then replaced with RPMI supplemented with 10% FBS. Cells were exposed to free selumetinib, free amine-modified dabrafenib (Scheme 8) or both, at a SLM-DBF mol ratio of 10:1 at serial dilutions. Number of viable cells was counted by a Z1 Coulter Counter® Cell and Particle Counter (Beckman Coulter®) following 72 hours incubation.
Inhibition of 131/4-5B1, human melanoma brain-metastasis cells by free selumetinib (SLM), free diol-modified dabrafenib (DBFdiol; see, Scheme 11), a combination of the free drugs at 3:1 SLM:DBFdiol mol ratio, PGA-SLM (see, Scheme 19), PGA-DBFdiol (see, Scheme 11), a combination of PGA-SLM and PGA-DBFdiol, and PGA-SLM-DBFdiol conjugate (see, Scheme 23) was determined.
131/4-5B1 cells (15,000/well) were plated onto 24-well culture in RPMI medium supplemented with 10% FBS and incubated for 24 hours (37° C.; 5% CO2). […] Cells were exposed to PGA-SLM conjugate, PGA-DBFdiol conjugate, to the combination of both at a SLM-DBF mol ratio of 10:1 and to the combined PGA-SLM-DBFdiol conjugate, calculated according to the SLM loading and assuming 10:1 mol ratio between SLM and DBF, at serial dilutions. […]

IC50 (131/4-5B1 melanoma cells) [nM] | Structure (SMILES) | selectivity for mutant BRAF over wild-type BRAF (mutant BRAF) | inhibition of MEK and ERK phosphorylation [1] | tumor regression (melanoma xenografts)
– | CC(C)(C)c1nc(-c2cccc(NS(=O)(=O)c3c(F)cccc3F)c2F)c(-c2ccnc(N)n2)s1 [Dabrafenib] | more than 100 fold | dose-dependent inhibition | induces tumor regression
70 | Cn1cnc2c(F)c(Nc3ccc(Br)cc3Cl)c(C(=O)NOCCO)cc21 [SLM, Selumetinib] | – | – | –
